Reference: paper PMC12704298, “Divergent acetyl-CoA binding modes mediate allosteric inhibition of bacterial hybrid-type malic enzymes” (The Journal of Biological Chemistry, 2025)

What was measured:
EcMaeB [1] = target: T1, EcMaeB (Escherichia coli, UniProt P76558); experiment: Enzyme kinetic parameters (Michaelis-Menten, substrate inhibition, empirical Hill plots); assay type: biochemical
T1 construct: His-tag (C); made in house; host or cells: E. coli BL21(DE3)
T1 sequence (P76558 1-759): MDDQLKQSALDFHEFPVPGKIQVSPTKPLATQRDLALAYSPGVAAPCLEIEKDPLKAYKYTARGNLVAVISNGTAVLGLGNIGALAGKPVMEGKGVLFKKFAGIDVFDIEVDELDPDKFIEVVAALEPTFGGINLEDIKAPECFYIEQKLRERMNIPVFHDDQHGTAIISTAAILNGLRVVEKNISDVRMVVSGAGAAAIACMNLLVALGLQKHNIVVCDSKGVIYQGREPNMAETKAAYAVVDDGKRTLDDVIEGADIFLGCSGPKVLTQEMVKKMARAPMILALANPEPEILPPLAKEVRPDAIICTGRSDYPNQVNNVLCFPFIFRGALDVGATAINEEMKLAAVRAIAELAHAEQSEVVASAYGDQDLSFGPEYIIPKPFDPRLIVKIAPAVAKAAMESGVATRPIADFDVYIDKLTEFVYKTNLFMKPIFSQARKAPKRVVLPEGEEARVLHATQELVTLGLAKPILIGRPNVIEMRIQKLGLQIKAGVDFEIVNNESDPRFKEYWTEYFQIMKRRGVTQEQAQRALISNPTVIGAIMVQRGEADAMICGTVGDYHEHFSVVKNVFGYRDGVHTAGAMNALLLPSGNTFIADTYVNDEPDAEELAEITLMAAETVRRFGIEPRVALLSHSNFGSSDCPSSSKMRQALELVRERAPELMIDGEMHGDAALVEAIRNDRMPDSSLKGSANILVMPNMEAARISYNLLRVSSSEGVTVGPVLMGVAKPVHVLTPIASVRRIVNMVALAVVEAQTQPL
Protocol: (§1) Spectrophotometric assays were used to monitor the oxidative decarboxylation of L-malate to pyruvate using a SpectraMax M2, UV-Visible spectrophotometer (Molecular Devices) operated by SoftMax Pro Software with kinetic mode. All assays recorded the Δabsorbance at 340 nm (NADPH) at 30 °C. Assays were initiated by the addition of enzyme to the otherwise complete reaction mixture. […] Acetyl-CoA was tested at 5 μM.
(§2) For this substrate inhibition model, x should be fixed. […] The plots shown in Fig. S1F were fitted to the empirical Hill equation: v0=Vmax·[malate]^h/(K0.5h+[malate]^h) where K0.5 indicates the substrate concentration for half-saturation. When h is equal to 1, K0.5 matches Michaelis constant Km.

EcMaeB [2] = target: T1, EcMaeB; design: method as in PMID 17557829; conditions: previous study; cited from earlier work
DME = tested on: DME; design: method as in PMID 10407149; conditions: cited from earlier work
BbMaeB = target: T2, BbMaeB (Bdellovibrio bacteriovorus, UniProt A0A1Z3N8R4); experiment: Enzyme kinetic parameters (Michaelis-Menten, substrate inhibition, empirical Hill plots); assay type: biochemical, Bdellovibrio bacteriovorus strain SSB218315
T2 sequence (A0A1Z3N8R4 1-776): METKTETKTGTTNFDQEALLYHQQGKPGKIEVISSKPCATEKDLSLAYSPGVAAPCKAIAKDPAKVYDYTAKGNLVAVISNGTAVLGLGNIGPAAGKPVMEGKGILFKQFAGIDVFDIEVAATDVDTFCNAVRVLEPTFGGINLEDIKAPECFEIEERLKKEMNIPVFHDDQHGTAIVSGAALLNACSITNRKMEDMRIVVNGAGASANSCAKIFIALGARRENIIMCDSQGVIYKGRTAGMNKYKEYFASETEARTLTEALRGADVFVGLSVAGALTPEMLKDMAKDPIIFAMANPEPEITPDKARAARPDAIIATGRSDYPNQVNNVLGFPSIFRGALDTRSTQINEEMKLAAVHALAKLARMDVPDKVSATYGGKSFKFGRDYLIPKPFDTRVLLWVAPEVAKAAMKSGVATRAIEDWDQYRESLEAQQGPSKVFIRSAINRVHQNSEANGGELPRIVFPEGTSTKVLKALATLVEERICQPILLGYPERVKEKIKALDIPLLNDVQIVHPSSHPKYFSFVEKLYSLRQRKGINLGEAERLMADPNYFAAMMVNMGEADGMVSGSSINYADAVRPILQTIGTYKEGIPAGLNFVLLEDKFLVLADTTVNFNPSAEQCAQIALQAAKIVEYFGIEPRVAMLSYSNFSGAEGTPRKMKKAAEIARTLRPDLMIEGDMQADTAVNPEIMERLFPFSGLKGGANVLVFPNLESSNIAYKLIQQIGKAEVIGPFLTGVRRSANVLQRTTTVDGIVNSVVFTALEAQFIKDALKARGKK
Protocol: as §1, §2

[3] = substrate: O=C(O)C[C@H](O)C(=O)O; experiment: as above; assay type: biochemical, Escherichia coli; conditions: other: EcMaeB; substrate inhibition plot, NADP+ fixed 0.5 mM, without acetyl-CoA; pH 7.5; 30.0 °C
[4] = target: the molecule itself; experiment: crystal structure; EcMaeB without cofactors and acetyl-CoA; 20 mg/ml protein, 0.2 M potassium chloride pH 7.0, 20% v/v PEG 3350, 20 °C; homohexamer
[5] = substrate: O=C(O)C[C@H](O)C(=O)O; experiment: Enzyme kinetic parameters (Michaelis-Menten, substrate inhibition, empirical Hill plots); assay type: biochemical, Bdellovibrio bacteriovorus strain SSB218315; conditions: other: BbMaeB; substrate inhibition plot, NADP+ fixed 0.5 mM, without acetyl-CoA; pH 7.5; 30.0 °C

## [Mg+2] [Mg^2+]
EcMaeB [1]
  effect of different Mg2+ concentrations on kinetic parameters: no significant changes in kinetic parameters
EcMaeB [2]
  concentration at which EcMaeB activity is inhibited: above 4 mM

## CCCC(=O)SCCNC(=O)CCNC(=O)[C@H](O)C(C)(C)COP(=O)(O)OP(=O)(O)OC[C@H]1O[C@@H](n2cnc3c(N)ncnc32)[C@H](O)[C@@H]1OP(=O)(O)O [butyryl-CoA]
DME
  effect on DME activity: inhibited

## O=C(O)C[C@H](O)C(=O)O [malate, L-malate]
BbMaeB; in the presence of acetyl-CoA, 0.5 mM NADP+, 300 nM enzyme
  K0.5 from the empirical Hill equation: 7.44 ± 1.21 mM
EcMaeB [1]; EcMaeB, in the presence of acetyl-CoA, 0.5 mM NADP+, 300 nM enzyme
  K0.5 from the empirical Hill equation: 18.1 ± 3.20 mM

## CCC(=O)SCCNC(=O)CCNC(=O)[C@H](O)C(C)(C)COP(=O)(O)OP(=O)(O)OC[C@H]1O[C@@H](n2cnc3c(N)ncnc32)[C@H](O)[C@@H]1OP(=O)(O)O [propionyl-CoA]
DME
  effect on DME activity: inhibited

## NADP^+
BbMaeB; 5 mM MnCl2
  change of Km for NADP+ with Mn2+ instead of Mg2+: approximately doubled
EcMaeB [1]; EcMaeB, 5 mM MnCl2
  change of Km for NADP+ with Mn2+ instead of Mg2+: approximately doubled

B1: malic enzyme B (MaeB) from Escherichia coli (enzyme, UniProt P76558 1-759, looked up)
chain: MDDQLKQSALDFHEFPVPGKIQVSPTKPLATQRDLALAYSPGVAAPCLEIEKDPLKAYKYTARGNLVAVISNGTAVLGLGNIGALAGKPVMEGKGVLFKKFAGIDVFDIEVDELDPDKFIEVVAALEPTFGGINLEDIKAPECFYIEQKLRERMNIPVFHDDQHGTAIISTAAILNGLRVVEKNISDVRMVVSGAGAAAIACMNLLVALGLQKHNIVVCDSKGVIYQGREPNMAETKAAYAVVDDGKRTLDDVIEGADIFLGCSGPKVLTQEMVKKMARAPMILALANPEPEILPPLAKEVRPDAIICTGRSDYPNQVNNVLCFPFIFRGALDVGATAINEEMKLAAVRAIAELAHAEQSEVVASAYGDQDLSFGPEYIIPKPFDPRLIVKIAPAVAKAAMESGVATRPIADFDVYIDKLTEFVYKTNLFMKPIFSQARKAPKRVVLPEGEEARVLHATQELVTLGLAKPILIGRPNVIEMRIQKLGLQIKAGVDFEIVNNESDPRFKEYWTEYFQIMKRRGVTQEQAQRALISNPTVIGAIMVQRGEADAMICGTVGDYHEHFSVVKNVFGYRDGVHTAGAMNALLLPSGNTFIADTYVNDEPDAEELAEITLMAAETVRRFGIEPRVALLSHSNFGSSDCPSSSKMRQALELVRERAPELMIDGEMHGDAALVEAIRNDRMPDSSLKGSANILVMPNMEAARISYNLLRVSSSEGVTVGPVLMGVAKPVHVLTPIASVRRIVNMVALAVVEAQTQPL
notes: MaeB of E. coli, gene amplified from genomic DNA of strain SHuffle T7; Cloned in pET-28a(+); Homohexamer in the crystal and in cryo-EM; also called EcMaeB; EcMaeBapo; source: E. coli BL21(DE3), purified (HisTrap TALON, size-exclusion chromatography)
[3]
  Km: 20.7 ± 8.83 mM
[4]
  stoichiometry N: 6

B2: BbMaeB (Bdellovibrio bacteriovorus) (protein)
chain: METKTETKTGTTNFDQEALLYHQQGKPGKIEVISSKPCATEKDLSLAYSPGVAAPCKAIAKDPAKVYDYTAKGNLVAVISNGTAVLGLGNIGPAAGKPVMEGKGILFKQFAGIDVFDIEVAATDVDTFCNAVRVLEPTFGGINLEDIKAPECFEIEERLKKEMNIPVFHDDQHGTAIVSGAALLNACSITNRKMEDMRIVVNGAGASANSCAKIFIALGARRENIIMCDSQGVIYKGRTAGMNKYKEYFASETEARTLTEALRGADVFVGLSVAGALTPEMLKDMAKDPIIFAMANPEPEITPDKARAARPDAIIATGRSDYPNQVNNVLGFPSIFRGALDTRSTQINEEMKLAAVHALAKLARMDVPDKVSATYGGKSFKFGRDYLIPKPFDTRVLLWVAPEVAKAAMKSGVATRAIEDWDQYRESLEAQQGPSKVFIRSAINRVHQNSEANGGELPRIVFPEGTSTKVLKALATLVEERICQPILLGYPERVKEKIKALDIPLLNDVQIVHPSSHPKYFSFVEKLYSLRQRKGINLGEAERLMADPNYFAAMMVNMGEADGMVSGSSINYADAVRPILQTIGTYKEGIPAGLNFVLLEDKFLVLADTTVNFNPSAEQCAQIALQAAKIVEYFGIEPRVAMLSYSNFSGAEGTPRKMKKAAEIARTLRPDLMIEGDMQADTAVNPEIMERLFPFSGLKGGANVLVFPNLESSNIAYKLIQQIGKAEVIGPFLTGVRRSANVLQRTTTVDGIVNSVVFTALEAQFIKDALKARGKK
[5]
  Km: 6.22 ± 1.55 mM
